Patent US20240335464A1, “ADMINISTRATION OF STING AGONIST, CHECKPOINT INHIBITORS, AND RADIATION” (Takeda Pharmaceutical Company Limited, priority 2020, published 2024)

System: EMT6 mouse breast carcinoma syngeneic tumor
Test: Study 1: EMT6 mouse syngeneic tumor model, subcutaneous, anti-tumor efficacy
Assay type: in vivo, female BALB/c mice
Conditions: for GRI (%) Day 19: vs vehicle; for Number of Complete Regressions: n=10/group, 72-day study; for Combination Assessment / Synergy Score %: data through Day 19
Text: Studies 1 and 2: EMT6 is a mouse breast carcinoma cell line. EMT6 mouse syngeneic tumor model was generated by subcutaneous (sc) inoculation with 0.2×10^6 EMT6 cells (cell suspension) in nine to ten week old female BALB/c mice (Vital River Laboratory Animal Technology Co., Ltd., Beijing, China) in the flank. When the mean tumor volume reached 60 mm^3 in Study 1 and 75 mm^3 in Study 2 the animals were randomized into one vehicle control and seven treatment groups (n=10/group). Mice were then dosed with vehicle (phosphate buffered saline (PBS)) or Compound No. 14 or 10 Gy Radiation or Compound No. 14 plus 10 Gy Radiation over an eight-day period. Tumor growth and body weight were measured three times per week during the treatment and post-treatment periods. Mice were humanely euthanized once they reached their humane endpoint or until study termination on day 72 (Study 1) or on day 60 (Study 2).
Studies 1 and 2: A 0.1 mg/mL stock solution of Compound No. 14 was formulated in PBS and administered intravenously (IV) based on exact animal body weight on each day of treatment, using a dosing volume of 10 mL/kg body weight. Final doses received were 1.0 mg/kg. […] Compound No. 14 was administered on a Q3D schedule for 3 doses (Day 2, 5 and 8) in single agent treatment group and in combination treatment groups. Dose formulation of Compound No. 14 was prepared once and utilized for dosing on Days 2, 5 and 8.
Radiation treatment for Studies 1 and 2 was performed using RadSource RS 2000 X-ray irradiator (Rad Source Technologies). Animals received 1.046 Gy/minute of radiation and approximately 9.5 min was needed to reach a 10 Gy dose delivery. Animals were anesthetized prior to placement in irradiation chamber using isoflurane and checked for reflexes. Radiation beam was focused on tumor with manual positioning. Radiation was administered via manual positioning in a single 10 Gy dose on either day 0, 2 or 4 in Study 1, and on either day 0, 1, 2, 3 or 4 in Study 2.
Tumors were measured three times weekly using vernier calipers. Tumor volumes were calculated using standard equation: V=W^2×L/2, where V=volume, W=width, and L=length for the tumor. When mean tumor volumes reached approximately 60 mm^3 for Study 1, 75 mm^3 for Study 2, and 110 mm^3 for Study 3, mice were randomized into eight groups (n=10/group) in Studies 1 and 2, and nine groups (n=8/group) in Study 3. These groups were then dosed with vehicle (PBS), Compound No. 14, Radiation, anti-mPD-1 or isotype control, or combinations of these agents as described in Tables 1a, 2a, and 3a. Tumor size and body weight were measured three times a week for the duration of each study. Mice were euthanized for Studies 1 and 2 when their tumor volumes reached greater than 10% of their body weight or when an individual tumor exceeded the humane end-point for size (>2 cm) or when an animal lost 20% of their body weight relative to the start of the study or lost 15% of their body weight in any 24 hr time frame. Mice were euthanized in Study 3 when tumor volume exceeded 2,000 mm^3 or an animal lost more than 20% of their body weight relative to the start of study.
Growth Rate Inhibition: The differences in the tumor growth trends over time between pairs of treatment groups were assessed by fitting each animal's data to a simple exponential growth model and comparing the mean growth rates of the two groups, as described in more detail below. The difference in the growth rates was summarized by the GRI, which is the reduction in growth rate experienced by the treatment group relative to that of the reference group, expressed as a fraction of the vehicle growth rate.
μT and μC are the mean tumor growth rates for the treatment and reference groups, respectively. μV is the mean tumor growth rate for the vehicle group, which in most cases is the same as the reference group.
A GRI greater than 100% is interpreted as tumor regression when the vehicle group is the same as the reference group. […]

[1] = Compound No. 14 1.0 mg/kg IV Q3D×3 + 10Gy Radiation (Day 0)
[2] = Compound No. 14 1.0 mg/kg IV Q3D×3 + 10Gy Radiation (Day 2)
[3] = Compound No. 14 1.0 mg/kg IV Q3D×3 + 10Gy Radiation (Day 4)
[4] = Compound No. 14 + Radiation (10 Gy) Day 0
[5] = Compound No. 14 + Radiation (10 Gy) Day 2
[6] = Compound No. 14 + Radiation (10 Gy) Day 4

Nc1ncnc2c1ncn2[C@@H]1O[C@@H]2COP(=O)(S)O[C@@H]3[C@H](O)[C@@H](COP(=O)(S)O[C@H]2[C@H]1F)O[C@H]3n1cc(F)c2c(=O)[nH]cnc21 (stereo partly drawn) [Compound No. 14]
GRI (%) Day 19 (Compound No. 14 1.0 mg/kg IV Q3D×3 (Days 2, 5, 8), single agent): 30% | Number of Complete Regressions [1]: 1 | GRI (%) Day 19 [1]: 82% | Number of Complete Regressions [2]: 1 | GRI (%) Day 19 [2]: 60% | Number of Complete Regressions [3]: 2 | GRI (%) Day 19 [3]: 67% | Number of Complete Regressions (Compound No. 14 1.0 mg/kg IV Q3D×3, single agent): 0 | Combination Assessment [4]: Additive | Synergy Score % [4]: −20% | Combination Assessment [5]: Additive | Synergy Score % [5]: 7% | Combination Assessment [6]: additive | Synergy Score % [6]: −10% | Combination Assessment (Compound No. 14 + Radiation (10 Gy) Day 4, listed as Compound No.14): Additive
